Key:
COS7 cells [1] = experiment: Competition of [1-14C]photo-Met incorporation by natural amino acids; type: cell-based, monkey; conditions: 1.7 mM [1-14C]photo-Met, 3 mM competing amino acid
Description: FIG. 4: Specificity of incorporation and cross-linking by photo-Met and photo-Leu. COS7 cells were transfected with HA-tagged human PGRMC1 and were grown in LM-4 in the absence or presence of photo-Leu (A) or photo-Met (B) with addition of 3 mM of the indicated competing amino acid. cross-linked products formed after UV-irradiation were detected by SDS-PAGE followed by western blotting against the HA-epitope. (C) COS7 cells were grown in the presence of 1.7 mM [1-^14C]photo-Met, a constant trace amount of [^3H]Phe and 3 mM of competing unlabeled amino acids as indicated in the legend. Protein was precipitated and protein-bound radioactivity was determined by scintillation counting. […] The control value obtained in the absence of competing amino acid (con) is set to 100. Data are average±SD of triplicate determinations.
COS7 cells were grown for 20 h in LM-2 containing radiolabeled amino acids ([1-^14C]photo-Met and [^3H]Phe). Cells were washed 6 times with PBS and lysed in 0.5% Triton X-100, 0.2% sodium deoxycholate. Aggregated DNA was removed, protein was precipitated^43, the pellet was redissolved in 0.3 ml 0.5% SDS and subjected to a second round of precipitation. […] Fractions of 3 ml were collected and assayed for absorbance at 350 nm, radioactivity by scintillation counting, and amino groups by the fluorescamine method^44. […]

COS7 cells [2] = experiment: Incorporation of [1-14C]photo-Met and [3H]Phe into newly synthesized protein; type: cell-based, monkey
Description: Cells were washed 6 times with PBS and lysed in 0.5% Triton X-100, 0.2% sodium deoxycholate. Aggregated DNA was removed, protein was precipitated^43, the pellet was redissolved in 0.3 ml 0.5% SDS and subjected to a second round of precipitation. […] The dried pellet was redissolved and processed for scintillation counting (data of Table 1 and FIG. 4b) or processed as follows for amino acid analysis (FIG. 2b): the pellet was dissolved in 600 µl 50 mM NH4HCO3, 0.5% SDS, 3 mM CaCl2 containing 0.25 mg pronase (Roche) followed by incubation at 37° C. for 20 h. The sample was lyophilized, dissolved in 600 μl of 7 N HCl containing 4 mg of glutamic acid and 6 mg of photo-Met and heated to 70° C. for 24 h. A Dowex 50WX8 column (1.6×24 cm) was prepared^18 and equilibrated with 0.1 M sodium citrate pH 3.8. The sample was concentrated to 50 μl in a speed-vak, diluted to 1 ml with 0.1 M sodium citrate pH 3.8, and loaded onto the column. The column was eluted at 24° C. at a flow rate of 20 ml/h with 70 ml 0.1 M sodium citrate pH 3.8, 26 ml 0.1 M sodium citrate pH 4.3 and 100 ml of 0.1 M sodium citrate pH 4.5. Fractions of 3 ml were collected and assayed for absorbance at 350 nm, radioactivity by scintillation counting, and amino groups by the fluorescamine method^44.
To decrease competition for activation by tRNA synthetases, media devoid of the structurally related amino acids Leu and Met (LM-2) or, for some experiments, devoid of Leu, Met, Ile and Val (LM-4) were used. Proteins incorporated radioactivity as shown by autoradiography after separation by SDS-PAGE (FIG. 2a, lane 3). […] 88% of the radioactivity in the labeled proteins was intact [1-^14C]photo-Met (FIG. 2b, photo-Met). A small peak eluting slightly earlier than glutamic acid (FIG. 2 B, Glu) contained 7% of the radioactivity. This peak was also observed if free [1-^14C]photo-Met was heated with HCl under the conditions of the hydrolysis (data not shown) and therefore represents a product of thermal decomposition of the amino acid. Under the conditions employed, radioactivity originating from degradation/re-integration would be expected to appear as aspartate and glutamate (oxidative release of [^14C]CO2, metabolism via pyruvate carboxylase, citric acid cycle and transamination to Gln and Asn that will be hydrolyzed to Glu and Asp by hot HCl). However, no radioactivity was incorporated via this pathway. We conclude that at least 95% of incorporated radioactivity represents intact [1-^14C]photo-Met. To obtain quantitative data on the frequency of incorporation of photo-Met into newly synthesized protein, we performed co-labeling with [1-^14C]photo-Met and [^3H]Phe. […] Two in three hundred amino acids in newly synthesized protein will be photo-Met.

CC1(CCC(N)[14C](=O)O)N=N1 (racemic) [[1-^14C]photo-Met, DL-[1-^14C]-2-amino-5,5′-azi-hexanoic acid]
competition of incorporation by Met and Leu (COS7 cells [1]): strongly competed | effect of Val and Ile on incorporation (COS7 cells [1]): slightly stimulated incorporation | Relative frequency (of total amino acids in newly synthesized protein) (COS7 cells [2]; COS7 cells grown 22 h in LM-2): 0.7% | Incorporated amino acid (COS7 cells [2]; COS7 cells grown 22 h in LM-2, average ± SD of triplicate): 0.50 ± 0.05 nmol/dish | Protein-bound activity (COS7 cells [2]; COS7 cells grown 22 h in LM-2 with [3H]Phe and [1-14C]photo-Met, average ± SD of triplicate): 2.34 ± 0.23 nCi/dish | frequency of incorporation relative to that of phenylalanine (COS7 cells [2]; co-labeling with [1-14C]photo-Met and [3H]Phe): 14%

From US20090211893A1, “Photo-Activatable Amino Acids” (priority 2005, published 2009)
